How the values were obtained:
Format in all cases: functional
[1] = test system: SNB-75; experiment: Cytotoxicity against human SNB75 cells assessed as cell growth level at 100 uM after 48 hrs by sulforhodamine B assay
[2] = test system: DU-145; experiment: Cytotoxicity against human DU145 cells assessed as cell growth level at 100 uM after 48 hrs by sulforhodamine B assay
[3] = test system: BT-549; experiment: Cytotoxicity against human BT549 cells assessed as cell growth level at 100 uM after 48 hrs by sulforhodamine B assay
[4] = test system: MDA-MB-468; experiment: Cytotoxicity against human MDA-MB-468 cells assessed as cell growth level at 100 uM after 48 hrs by sulforhodamine B assay
[5] = test system: NCI-H322M; experiment: Cytotoxicity against human NCI-H322M cells assessed as cell growth level at 10 nM after 48 hrs by sulforhodamine B assay
[6] = test system: COLO 205; experiment: Cytotoxicity against human COLO205 cells assessed as cell growth level at 10 nM after 48 hrs by sulforhodamine B assay
[7] = test system: HCT-15; experiment: Cytotoxicity against human HCT15 cells assessed as cell growth level at 10 nM after 48 hrs by sulforhodamine B assay
[8] = test system: KM12; experiment: Cytotoxicity against human KM12 cells assessed as cell growth level at 10 nM after 48 hrs by sulforhodamine B assay
[9] = test system: Malme-3M; experiment: Cytotoxicity against human MALME-3M cells assessed as cell growth level at 10 nM after 48 hrs by sulforhodamine B assay
[10] = test system: SR; experiment: Cytotoxicity against human SR cells assessed as cell growth level at 100 nM after 48 hrs by sulforhodamine B assay
[11] = test system: NCI-H23; experiment: Cytotoxicity against human NCI-H23 cells assessed as cell growth level at 100 nM after 48 hrs by sulforhodamine B assay
[12] = test system: HCT-116; experiment: Cytotoxicity against human HCT116 cells assessed as cell growth level at 100 nM after 48 hrs by sulforhodamine B assay
[13] = test system: HL-60(TB); experiment: Cytotoxicity against human HL-60(TB) cells assessed as cell growth level at 10 uM after 48 hrs by sulforhodamine B assay
[14] = test system: SR; experiment: Cytotoxicity against human SR cells assessed as cell growth level at 10 uM after 48 hrs by sulforhodamine B assay
[15] = test system: MDA-MB-468; experiment: Cytotoxicity against human MDA-MB-468 cells assessed as cell growth level at 100 nM after 48 hrs by sulforhodamine B assay
[16] = test system: CCRF-CEM; experiment: Cytotoxicity against human CCRF-CEM cells assessed as cell growth level at 1 uM after 48 hrs by sulforhodamine B assay
[17] = test system: NCI-H226; experiment: Cytotoxicity against human NCI-H226 cells assessed as cell growth level at 1 uM after 48 hrs by sulforhodamine B assay
[18] = test system: NCI-H322M; experiment: Cytotoxicity against human NCI-H322M cells assessed as cell growth level at 10 uM after 48 hrs by sulforhodamine B assay
[19] = test system: KM12; experiment: Cytotoxicity against human KM12 cells assessed as cell growth level at 10 uM after 48 hrs by sulforhodamine B assay
[20] = test system: SNB-19; experiment: Cytotoxicity against human SNB19 cells assessed as cell growth level at 10 uM after 48 hrs by sulforhodamine B assay
[21] = test system: OVCAR-5; experiment: Cytotoxicity against human OVCAR5 cells assessed as cell growth level at 10 uM after 48 hrs by sulforhodamine B assay
[22] = test system: 786-0; experiment: Cytotoxicity against human 786-0 cells assessed as cell growth level at 10 uM after 48 hrs by sulforhodamine B assay
[23] = test system: A498; experiment: Cytotoxicity against human A498 cells assessed as cell growth level at 10 uM after 48 hrs by sulforhodamine B assay
[24] = test system: RXF 393; experiment: Cytotoxicity against human RXF393 cells assessed as cell growth level at 10 uM after 48 hrs by sulforhodamine B assay
[25] = test system: SF-539; experiment: Cytotoxicity against human SF539 cells assessed as cell growth level at 1 uM after 48 hrs by sulforhodamine B assay
[26] = test system: MDA-MB-468; experiment: Cytotoxicity against human MDA-MB-468 cells assessed as cell growth level at 10 uM after 48 hrs by sulforhodamine B assay
[27] = test system: K562; experiment: Cytotoxicity against human K562 cells after 48 hrs by sulforhodamine B assay; details: K562, 48 h
[28] = test system: KM12; experiment: Cytotoxicity against human KM12 cells after 48 hrs by sulforhodamine B assay; details: KM12, 48 h
[29] = test system: SF-295; experiment: Cytotoxicity against human SF295 cells after 48 hrs by sulforhodamine B assay; details: SF-295, 48 h
[30] = test system: COLO 205; experiment: Cytotoxicity against human COLO205 cells assessed as cell growth level at 100 uM after 48 hrs by sulforhodamine B assay
[31] = test system: MDA-MB-435; experiment: Cytotoxicity against human MDA-MB-435 cells after 48 hrs by sulforhodamine B assay; details: MDA-MB-435, 48 h
[32] = test system: SK-MEL-28; experiment: Cytotoxicity against human SK-MEL-28 cells after 48 hrs by sulforhodamine B assay; details: SK-MEL-28, 48 h
[33] = test system: UACC-257; experiment: Cytotoxicity against human UACC257 cells after 48 hrs by sulforhodamine B assay; details: UACC-257, 48 h
[34] = Cytotoxicity against human NCI-ADR-RES cells after 48 hrs by sulforhodamine B assay
[35] = test system: ACHN; experiment: Cytotoxicity against human ACHN cells after 48 hrs by sulforhodamine B assay
[36] = test system: K562; experiment: Cytotoxicity against human K562 cells assessed as cell growth level at 10 nM after 48 hrs by sulforhodamine B assay
[37] = read-out: LC50 (the source's name)
[38] = read-out: pLC50 (the source's name) (converted)

O=c1oc2ccccc2cc1-c1csc(N/N=C/c2c[nH]c3ccccc23)n1
Activity [1]: -53%
Activity [2]: -2%
Activity [3]: -88%
Activity [4]: -39%
Activity [5]: 103%
Activity [6]: 110%
Activity [7]: 95%
Activity [8]: 99%
Activity [9]: 100%
Activity [10]: 102%
Activity [11]: 88%
Activity [12]: 91%
Activity [13]: -28.24%
Activity [14]: -0.54%
Activity [15]: 83%
Activity [16]: 7%
Activity [17]: 101%
Activity [18]: 15.29%
Activity [19]: -47.67%
Activity [20]: 39.43%
Activity [21]: 55.24%
Activity [22]: -53.65%
Activity [23]: 6.72%
Activity [24]: 25.19%
Activity [25]: 87%
Activity [26]: 2.39%
GI50 ([27]; read-out: GI50): 3.18 µM
LC50 ([27]; read-out: LC50): > 100 µM
TGI ([27]; read-out: TGI): 10.4 µM
GI50 ([27]; read-out: pGI50 (converted)): 3.16 µM
LC50 ([27]; read-out: pLC50 (converted)): > 100 µM
TGI ([27]; read-out: pTGI (converted)): 10.5 µM
GI50 ([28]; read-out: GI50): 1860 nM
CC50 [28, 37]: 9.22 µM
TGI ([28]; read-out: TGI): 4.14 µM
GI50 ([28]; read-out: pGI50 (converted)): 1860 nM
CC50 [28, 38]: 9.12 µM
TGI ([28]; read-out: pTGI (converted)): 4.17 µM
GI50 ([29]; read-out: GI50): 2230 nM
CC50 [29, 37]: > 100 µM
TGI ([29]; read-out: TGI): 6.76 µM
GI50 ([29]; read-out: pGI50 (converted)): 2240 nM
CC50 [29, 38]: > 100 µM
TGI ([29]; read-out: pTGI (converted)): 6.76 µM
Activity [30]: -36%
GI50 ([31]; read-out: GI50): 2100 nM
CC50 [31, 37]: 25.2 µM
TGI ([31]; read-out: TGI): 5.47 µM
GI50 ([31]; read-out: pGI50 (converted)): 2090 nM
CC50 [31, 38]: 25.1 µM
TGI ([31]; read-out: pTGI (converted)): 5.5 µM
GI50 ([32]; read-out: GI50): 3.96 µM
CC50 [32, 37]: > 100 µM
TGI ([32]; read-out: TGI): 96.9 µM
GI50 ([32]; read-out: pGI50 (converted)): 3.98 µM
CC50 [32, 38]: > 100 µM
TGI ([32]; read-out: pTGI (converted)): 97.7 µM
GI50 ([33]; read-out: GI50): 2150 nM
CC50 [33, 37]: > 100 µM
TGI ([33]; read-out: TGI): 5.63 µM
GI50 ([33]; read-out: pGI50 (converted)): 2140 nM
CC50 [33, 38]: > 100 µM
TGI ([33]; read-out: pTGI (converted)): 5.62 µM
GI50 ([34]; read-out: GI50): 2820 nM
CC50 [34, 37]: > 100 µM
TGI ([34]; read-out: TGI): 9.23 µM
GI50 ([34]; read-out: pGI50 (converted)): 2820 nM
CC50 [34, 38]: > 100 µM
TGI ([34]; read-out: pTGI): < 9.33 µM
GI50 ([35]; read-out: GI50): 1310 nM
CC50 [35, 37]: 70.8 µM
TGI ([35]; read-out: TGI): 4.36 µM
GI50 ([35]; read-out: pGI50 (converted)): 1320 nM
CC50 [35, 38]: 70.8 µM
TGI ([35]; read-out: pTGI (converted)): 4.37 µM
Activity [36]: 95%

— ChEMBL document CHEMBL3580659, “One-pot multicomponent synthesis of indole incorporated thiazolylcoumarins and their antibacterial, anticancer and DNA cleavage studies” (2015)
